From the NIST ThermoML archive (doi:10.1016/j.jct.2017.06.013)

Assay: xn = mol fraction of the nth substance listed
Conditions: Liquid, Vibrating tube method

CC(C)OC(C)C [diisopropyl ether] + CCCCCCO
mass density [kg/m3]
Conditions | x1 = 0.1524 | x1 = 0.3196 | x1 = 0.4906 | x1 = 0.6974 | x1 = 0.8457
293.15 K, 100 kPa | 806.7 | 792.1 | 776.3 | 756.4 | 741.2
293.15 K, 500 kPa | 806.9 | 792.3 | 776.7 | 756.8 | 741.7
293.15 K, 1000 kPa | 807.2 | 792.7 | 777.1 | 757.3 | 742.2
293.15 K, 2000 kPa | 807.9 | 793.5 | 777.9 | 758.3 | 743.3
293.15 K, 5000 kPa | 810 | 795.7 | 780.4 | 761.1 | 746.4
293.15 K, 10000 kPa | 813.4 | 799.5 | 784.5 | 765.7 | 751.4
293.15 K, 15000 kPa | 816.6 | 803 | 788.3 | 770 | 756.1
293.15 K, 20000 kPa | 819.7 | 806.4 | 792 | 774.1 | 760.5
293.15 K, 30000 kPa | 825.7 | 812.8 | 799 | 781.7 | 768.7
293.15 K, 40000 kPa | 831.2 | 818.6 | 805.3 | 788.6 | 776
293.15 K, 50000 kPa | 836.3 | 824.1 | 811.2 | 795 | 782.9
293.15 K, 60000 kPa | 841.3 | 829.4 | 816.8 | 801 | 789.3
293.15 K, 70000 kPa | 846.1 | 834.5 | 822.1 | 806.7 | 795.3
293.15 K, 80000 kPa | 850.4 | 839.1 | 827.1 | 812 | 800.8
293.15 K, 90000 kPa | 854.7 | 843.6 | 831.8 | 817.1 | 806.1
293.15 K, 100000 kPa | 858.8 | 848 | 836.3 | 822 | 811.2
293.15 K, 110000 kPa | 862.7 | 852 | 840.6 | 826.6 | 816
293.15 K, 120000 kPa | 866.5 | 856 | 844.8 | 830.9 | 820.5
293.15 K, 130000 kPa | 870.3 | 859.9 | 848.9 | 835.2 | 825
293.15 K, 140000 kPa | 873.7 | 863.5 | 852.6 | 839.2 | 829
313.15 K, 100 kPa | 791.5 | 776 | 759.1 | 737.8 | 721.4
313.15 K, 500 kPa | 791.8 | 776.3 | 759.5 | 738.2 | 721.9
313.15 K, 1000 kPa | 792.2 | 776.7 | 760 | 738.8 | 722.5
313.15 K, 2000 kPa | 793 | 777.6 | 761 | 739.9 | 723.8
313.15 K, 5000 kPa | 795.3 | 780.2 | 763.9 | 743.3 | 727.5
313.15 K, 10000 kPa | 799 | 784.3 | 768.4 | 748.4 | 733.2
313.15 K, 15000 kPa | 802.6 | 788.2 | 772.7 | 753.3 | 738.5
313.15 K, 20000 kPa | 806 | 791.9 | 776.8 | 757.8 | 743.4
313.15 K, 30000 kPa | 812.4 | 798.9 | 784.3 | 766.2 | 752.5
313.15 K, 40000 kPa | 818.5 | 805.4 | 791.4 | 773.9 | 760.8
313.15 K, 50000 kPa | 823.9 | 811.2 | 797.7 | 780.9 | 768.2
313.15 K, 60000 kPa | 829.3 | 817 | 803.8 | 787.5 | 775.1
313.15 K, 70000 kPa | 834.3 | 822.3 | 809.5 | 793.6 | 781.7
313.15 K, 80000 kPa | 839 | 827.3 | 814.7 | 799.3 | 787.7
313.15 K, 90000 kPa | 843.4 | 832 | 819.7 | 804.6 | 793.2
313.15 K, 100000 kPa | 847.8 | 836.6 | 824.6 | 809.8 | 798.7
313.15 K, 110000 kPa | 852 | 841 | 829.2 | 814.6 | 803.8
313.15 K, 120000 kPa | 855.9 | 845.2 | 833.6 | 819.3 | 808.7
313.15 K, 130000 kPa | 859.9 | 849.2 | 837.8 | 823.9 | 813.4
313.15 K, 140000 kPa | 863.6 | 853.2 | 841.9 | 828.2 | 817.9
333.15 K, 100 kPa | 775.6 | 759.2 | 741.1 | 718.3 | 700.6
333.15 K, 500 kPa | 776 | 759.6 | 741.6 | 718.8 | 701.3
333.15 K, 1000 kPa | 776.5 | 760.1 | 742.2 | 719.5 | 702.1
333.15 K, 2000 kPa | 777.4 | 761.1 | 743.3 | 720.8 | 703.6
333.15 K, 5000 kPa | 780 | 764 | 746.7 | 724.7 | 707.9
333.15 K, 10000 kPa | 784.2 | 768.7 | 751.8 | 730.6 | 714.5
333.15 K, 15000 kPa | 788.1 | 773 | 756.7 | 736.1 | 720.6
333.15 K, 20000 kPa | 791.8 | 777.1 | 761.2 | 741.3 | 726.2
333.15 K, 30000 kPa | 798.8 | 784.8 | 769.6 | 750.7 | 736.4
333.15 K, 40000 kPa | 805.4 | 791.9 | 777.3 | 759.3 | 745.6
333.15 K, 50000 kPa | 811.3 | 798.3 | 784.2 | 766.8 | 753.8
333.15 K, 60000 kPa | 817 | 804.4 | 790.7 | 773.8 | 761.2
333.15 K, 70000 kPa | 822.4 | 810.1 | 796.8 | 780.5 | 768.3
333.15 K, 80000 kPa | 827.3 | 815.4 | 802.4 | 786.6 | 774.7
333.15 K, 90000 kPa | 832.2 | 820.4 | 807.8 | 792.4 | 780.8
333.15 K, 100000 kPa | 836.8 | 825.3 | 813 | 797.9 | 786.7
333.15 K, 110000 kPa | 841.1 | 829.8 | 817.8 | 803 | 792
333.15 K, 120000 kPa | 845.5 | 834.4 | 822.6 | 808.1 | 797.4
333.15 K, 130000 kPa | 849.4 | 838.6 | 827 | 812.8 | 802.2
333.15 K, 140000 kPa | 853.4 | 842.8 | – | – | –
